This is an account of results in patent US7109193B2, “Tricyclic diazepines tocolytic oxytocin receptor antagonists” (Wyeth, priority 2001, dated 2006).

This assay deals with T1, human vasopressin V1a receptor subtype (Homo sapiens, UniProt P37288).
T1 construct: host or cells: CHO cells (pZeoSV vector for the Thibonnier line)
Nature of the assay: Vasopressin binding in Chinese Hamster Ovary cell membranes expressing human vasopressin V1a subtype receptors. The following applies: 100 nM, CHO cell membranes, [3H]Manning ligand, values without parentheses. The procedure:
Vasopressin Binding in Chinese Hamster Ovary Cell Membranes Expressing Human Vasopressin V1a Subtype Receptors
The trypsin is removed by aspiration and the cells dislodged by tapping. Cell Culture medium (e.g. 30 mL for 1:30 split) is immediately added and mixed well to inactivate trypsin. 1 mL of detached cells is added to new culture flasks containing fresh cell culture medium (e.g., into 25 mL per T-150 flask), and mixed gently. The cells are incubated at 37° C. in 5% CO2. The medium is changed at 3 to 4 days interval (or as appropriate). […] All steps are done under sterile conditions. B. Membrane Preparation: The cells are washed twice gently with Hank's Balanced Salt solution (e.g,. use 10 mL per T-150 flask). […] The contents are transferred to centrifuge tubes (50 mL) kept in an ice bath. All subsequent steps are done at 4° C. The tubes are centrifuged at 300×g for 15 min (1380 rpm on SORVAL, Model RT6000D, using the rotor for 50 mL tubes). The supernatant is discarded and the cells suspended in homogenizing buffer(10 mM Tris-HCl containing 0.25 M sucrose and 1 mM EDTA, pH 7.4) ensuring that the volume of the buffer is about ten times the volume of the cell pellet. The cells are pooled into a centrifuge tube (50 mL) and homogenized with a Polytron at setting 6 for 10 sec. The homogenate is transferred into a Potter-Elvjehm homogenizer and homogenized with 3 strokes. The homogenate is centrifuged at 1500×g for 10 min at 4° C. (3100 rpm using SORVAL, model RT6000D, using the rotor for 50 mL tubes). The pellet is discarded. The supernatant is centrifuged at 100,000×g for 60 min. at 4° C. (Beckman L8-80M ultracentrifuge; spin at 37,500 rpm with rotor type 70 Ti for 50 mL tubes; 38,000 rpm with type 80Ti for 15 mL tubes; or 35,800 rpm with rotor type 45Ti). The supernantant is discarded and the pellet suspended in 3 to 4 mL of Tris buffer (50 mM TRIS-HCl, pH 7.4). The protein content is estimated by the Bradford or Lowry method. The volume of the membrane suspension is adjusted with the membrane buffer (50 mM Tris-HCl containing 0.1% BSA and 0.1 mM PMSF) to give 3.0 mg/mL (or as appropriate) of protein. The membranes are aliquoted and stored at −70° C. C. Radioligand Binding Assay: In wells of a 96-well format microtiter plate, is added 90, 110 or 130 μL (to make up a final volume of 200 μL) of assay buffer containing 50 mM of Tris-HCl (pH 7.4), BSA (heat inactivated, protease-free), […], 1 mg % aprotinin, 1 mg % leupeptin, 2 mg % 1,10-phenanthroline, 10 mg % trypsin inhibitor, and 0.1 mM PMSF. The inhibitors are added on the day of the experiment. The components are mixed at room temperature, and then kept in ice bath following adjustment of the pH to 7.4. […] 20 μL of 50% DMSO is added for Manning and other peptide ligands and the assay buffer volume is adjusted accordingly. To each well is added 50 μL of frozen membrane suspension thawed immediately prior to use and diluted in the assay buffer to the required concentration (equivalent to 25 to 50 μg of protein/well as needed). 20 μL of 8 nM [^3H]Manning ligand in the assay buffer, prepared just before use, is added, and incubated at room temperature for 60 min. shaking the plate on a mechanical shaker for the first 15 min. The incubation is stopped by rapid filtration of the plate contents followed by wash with ice-cold buffer (50 mM Tris-HCl, pH 7.4) using a cell harvester (Tomtek and Printed filtermat-B filter paper). The filter paper is thoroughly dried (7–12 min. in a microwave oven) and impregnated with MeltiLex B/H melt-on scintillation wax sheets and the radioactivity counted in a betaplate scintillation counter.
Binding data is either reported as percent inhibition at a certain concentration or if an IC50 was calculated, as a nanomolar concentration.

T1 sequence (P37288 whole entry): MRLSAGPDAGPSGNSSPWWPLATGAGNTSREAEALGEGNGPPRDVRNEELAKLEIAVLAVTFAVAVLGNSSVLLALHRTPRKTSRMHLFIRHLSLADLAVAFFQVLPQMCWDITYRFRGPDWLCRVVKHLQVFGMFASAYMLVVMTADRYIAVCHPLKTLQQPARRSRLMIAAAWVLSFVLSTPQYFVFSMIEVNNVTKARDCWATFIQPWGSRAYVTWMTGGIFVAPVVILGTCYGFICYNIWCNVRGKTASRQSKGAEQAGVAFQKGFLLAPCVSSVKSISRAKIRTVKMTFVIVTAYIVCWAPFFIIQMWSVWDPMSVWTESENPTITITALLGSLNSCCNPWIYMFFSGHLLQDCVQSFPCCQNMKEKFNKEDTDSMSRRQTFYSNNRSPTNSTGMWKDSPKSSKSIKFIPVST

`COc1cccc(-c2ccc(C(=O)N3Cc4ccc(C(=O)N5CCC(N6CCCCC6)CC5)n4Cc4ccccc43)cc2OC)c1` [Example 120, {10-[(2,3′-Dimethoxy-[1,1′-biphenyl]-4-yl)carbonyl]-10,11-dihydro-5H-pyrrolo[2,1-c][1,4]benzodiazepin-3-yl}[4-(1-piperidinyl)-1-piperidinyl]methanone]: the inhibition at 0.1 µM was 20%.
Turning to `O=C(c1ccc2n1Cc1ccccc1N(C(=O)c1ccc(-c3cccc4ccccc34)cc1Cl)C2)N1CCC(N2CCCCC2)CC1` [Example 121], the “V1a % inhibition @ 100 nM” value was 0%.
Turning to `Cc1cc(C(=O)N2Cc3ccc(C(=O)N4CCC(N5CCCCC5)CC4)n3Cc3ccccc32)ccc1-c1ccccc1C(F)(F)F` [Example 122, {10-[(2-Methyl-2′-(trifluoromethyl) -[1,1′-biphenyl]-4-yl)carbonyl]-10,11-dihydro-5H -pyrrolo[2,1-c][1,4]benzodiazepin-3-yl}[4-(1-piperidinyl)-1-piperidinyl]methanone], the inhibition at 0.1 µM was 8%.
For the compound `COc1ccccc1-c1ccc(C(=O)N2Cc3ccc(C(=O)NCCCn4ccnc4)n3Cc3ccccc32)cc1C` [Example 123, N-[3-(1H-Imidazol-1-yl)propyl]-10-[(2′-methoxy-2-methyl[1,1′-biphenyl]-4-yl)carbonyl]-10,11-dihydro-5H-pyrrolo[2,1-c][1,4]benzodiazepine-3-carboxamide], the inhibition at 0.1 µM turned out to be 9%.
For `Cc1ccccc1-c1ccc(C(=O)N2Cc3ccc(C(=O)NCCCn4ccnc4)n3Cc3ccccc32)cc1C` [Example 124, 10-[(2,2′-Dimethyl[1,1′-biphenyl]-4-yl)carbonyl]-N-[3-(1H-imidazol-1-yl)propyl]-10,11-dihydro-5H-pyrrolo[2,1-c][1,4]benzodiazepine-3-carboxamide], the inhibition at 0.1 µM was found to be 16%.
Still for that read-out and setting: the same measure for `COc1cccc(-c2ccc(C(=O)N3Cc4ccc(C(=O)NCCCn5ccnc5)n4Cc4ccccc43)cc2C)c1` [Example 125, N-[3-(1H-Imidazol-1-yl)propyl]-10-[(3′-methoxy-2-methyl[1,1′-biphenyl]-4-yl)carbonyl]-10,11-dihydro-5H-pyrrolo[2,1-c][1,4]benzodiazepine-3-carboxamide]: 10%.
As to `COc1ccccc1-c1ccc(C(=O)N2Cc3ccc(C(=O)NCCCn4ccnc4)n3Cc3ccccc32)cc1` [Example 126, N-[3-(1H-Imidazol-1-yl)propyl]-10-[(2′-methoxy[1,1′-biphenyl]-4-yl)carbonyl]-10,11-dihydro-5H-pyrrolo[2,1-c][1,4]benzodiazepine-3-carboxamide], the inhibition at 0.1 µM was determined as 9%.
`Cc1ccccc1-c1ccc(C(=O)N2Cc3ccc(C(=O)NCCCn4ccnc4)n3Cc3ccccc32)cc1` [Example 127, N-[3-(1H-Imidazol-1-yl)propyl]-10-[(2′-methyl[1,1′-biphenyl]-4-yl)carbonyl]-10,11-dihydro-5H-pyrrolo[2,1-c][1,4]benzodiazepine-3-carboxamide]: the inhibition at 0.1 µM stood at 16%.
`COc1cc(C(=O)N2Cc3ccc(C(=O)NCCCn4ccnc4)n3Cc3ccccc32)ccc1-c1ccccc1C` [Example 128, N-[3-(1H-Imidazol-1-yl)propyl]-10-[(2-methoxy-2′-methyl[1,1′-biphenyl]-4-yl)carbonyl]-10,11-dihydro-5H-pyrrolo[2,1-c][1,4]benzodiazepine-3-carboxamide]: the inhibition at 0.1 µM was 18%.
Take `COc1cc(-c2ccccc2C)c(Cl)cc1C(=O)N1Cc2ccc(C(=O)NCCCn3ccnc3)n2Cc2ccccc21` [Example 129, 10-[(6-Chloro-3-methoxy-2′-methyl[1,1′-biphenyl]-4-yl)carbonyl]-N-[3-(1H-imidazol-1-yl)propyl]-10,11-dihydro-5H-pyrrolo[2,1-c][1,4]benzodiazepine-3-carboxamide]: the inhibition at 0.1 µM is 6%.
Consider `COc1cccc(-c2cc(OC)c(C(=O)N3Cc4ccc(C(=O)NCCCn5ccnc5)n4Cc4ccccc43)cc2Cl)c1` [Example 130, 10-[(6-Chloro-3,3′-dimethoxy[1,1′-biphenyl]-4-yl)carbonyl]-N-[3-(1H-imidazol-1-yl)propyl]-10,11-dihydro-5H-pyrrolo[2,1-c][1,4]benzodiazepine-3-carboxamide], for which the inhibition at 0.1 µM was found to be 4%.
The same measure, in the same setting: in the case of `COc1cc(C(=O)N2Cc3ccc(C(=O)NCCCn4ccnc4)n3Cc3ccccc32)ccc1-c1cccc2ccccc12` [Example 131, N-[3-(1H-Imidazol-1-yl)propyl]-10-[3-methoxy-4-(1-naphthyl)benzoyl]-10,11-dihydro-5H-pyrrolo[2,1-c][1,4]benzodiazepine-3-carboxamide] it was 8%.
Take `COc1ccccc1-c1ccc(C(=O)N2Cc3ccc(C(=O)NCCCn4ccnc4)n3Cc3ccccc32)cc1OC` [Example 132, 10-[(2,2′-Dimethoxy[1,1′-biphenyl]-4-yl)carbonyl]-N-[3-(1H-imidazol-1-yl)propyl]-10,11-dihydro-5H-pyrrolo[2,1-c][1,4]benzodiazepine-3-carboxamide]: the inhibition at 0.1 µM was 2%.
Take `COc1cccc(-c2ccc(C(=O)N3Cc4ccc(C(=O)NCCCn5ccnc5)n4Cc4ccccc43)cc2OC)c1` [Example 133, 10-[(2,3′-Dimethoxy[1,1′-biphenyl]4-yl)carbonyl]-N-[3-(1H-imidazol-1-yl)propyl]-10,11-dihydro-5H-pyrrolo[2,1-c][1,4]benzodiazepine-3-carboxamide]: the inhibition at 0.1 µM stood at 20%.
In the case of `O=C(NCCCn1ccnc1)c1ccc2n1Cc1ccccc1N(C(=O)c1ccc(-c3cccc4ccccc34)cc1Cl)C2` [Example 134, 10-[2-Chloro-4-(1-naphthyl)benzoyl]-N-[3-(1H-imidazol-1-yl)propyl]-10,11-dihydro-5H-pyrrolo[2,1-c][1,4]benzodiazepine-3-carboxamide], the inhibition at 0.1 µM amounted to 5%.
Still for that read-out and setting: the same measure for `Cc1cc(C(=O)N2Cc3ccc(C(=O)NCCCn4ccnc4)n3Cc3ccccc32)ccc1-c1ccccc1C(F)(F)F` [Example 135, N-[3-(1H-Imidazol-1-yl)propyl]-10-{[2-methyl-2′-(trifluoromethyl)[1,1′-biphenyl]-4-yl]carbonyl}-10,11-dihydro-5H-pyrrolo[2,1-c][1,4]benzodiazepine-3-carboxamide]: 2%; for `COc1ccccc1-c1ccc(C(=O)N2Cc3ccc(C(=O)N4CCC(N5CCCC5)CC4)n3Cc3ccccc32)cc1C` [Example 137, {10-[(2′-Methoxy-2-methyl[1,1′-biphenyl]-4-yl)carbonyl]-10,11-dihydro-5H-pyrrolo[2,1-c][1,4]benzodiazepin-3-yl}[4-(1-pyrrolidinyl)-1-piperidinyl]methanone]: 4%.
Regarding `Cc1ccccc1-c1ccc(C(=O)N2Cc3ccc(C(=O)N4CCC(N5CCCC5)CC4)n3Cc3ccccc32)cc1C` [Example 138, {10-[(2,2′-Dimethyl[1,1′-biphenyl]-4-yl)carbonyl]-10,11-dihydro-5H-pyrrolo[2,1-c][1,4]benzodiazepin-3-yl}[4-(1-pyrrolidinyl)-1-piperidinyl]methanone], the inhibition at 0.1 µM was 47%.
Consider `COc1cccc(-c2ccc(C(=O)N3Cc4ccc(C(=O)N5CCC(N6CCCC6)CC5)n4Cc4ccccc43)cc2C)c1` [Example 139, {10-[(3′-Methoxy-2-methyl[1,1′-biphenyl]-4-yl)carbonyl]-10,11-dihydro-5H-pyrrolo[2,1-c][1,4]benzodiazepin-3-yl}[4-(1-pyrrolidinyl)-1-piperidinyl]methanone], for which the inhibition at 0.1 µM is 9%.

One may read the inhibition as the change of the read-out against control, counted positive when it falls.
